Source: ChEMBL document CHEMBL1201862, “PubChem BioAssay data set” (2004)
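Five compound concentrations were applied to cells in 96-well plates for 48 hours; endpoints were derived by simple linear interpolation of the resulting dose-response curve. GI50: concentration for 50% inhibition of growth.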 Calls of active or inactive are those of the source. Rule as the data show it: active = GI50 up to about 1.1 µM and inactive = higher.

How the values were obtained:
Assay in all cases: NCI-60 cell line screen, 48 h
HCC 2998 = test system: HCC 2998
SK-MEL-5 = test system: SK-MEL-5
SF-539 = test system: SF-539
DMS-114 = test system: DMS-114
SF-295 = test system: SF-295
DLD-1 = test system: DLD-1
A549 = test system: A549
SN12C = test system: SN12C
NCI-H23 = test system: NCI-H23
UACC-257 = test system: UACC-257
SK-MEL-28 = test system: SK-MEL-28
Malme-3M = test system: Malme-3M
HOP-18 = test system: HOP-18
HCT-15 = test system: HCT-15
SW-620 = test system: SW-620
U-251 = test system: U-251
MOLT-4 = test system: MOLT-4
M14 = test system: M14
SNB-19 = test system: SNB-19
XF498 = test system: XF498
NCI-H522 = test system: NCI-H522
RXF 393 = test system: RXF 393
NCI-H226 = test system: NCI-H226
OVCAR-5 = test system: OVCAR-5
SF-268 = test system: SF-268
NCI-H460 = test system: NCI-H460
IGROV-1 = test system: IGROV-1
SK-OV-3 = test system: SK-OV-3
ACHN = test system: ACHN
786-0 = test system: 786-0
RPMI-8226 = test system: RPMI-8226
HOP-92 = test system: HOP-92
SR = test system: SR
COLO 205 = test system: COLO 205
KM12 = test system: KM12
HT-29 = test system: HT-29
CCRF-CEM = test system: CCRF-CEM
K562 = test system: K562
UO-31 = test system: UO-31
TK-10 = test system: TK-10
LXFL 529 = test system: LXFL 529
OVCAR-8 = test system: OVCAR-8
M19-MEL = test system: M19-MEL
EKVX = test system: EKVX
OVCAR-3 = test system: OVCAR-3
SK-MEL-2 = test system: SK-MEL-2
HL-60 = test system: HL-60
UACC-62 = test system: UACC-62
SNB-78 = test system: SNB-78
OVCAR-4 = test system: OVCAR-4
HCT-116 = test system: HCT-116
CAKI-1 = test system: CAKI-1
LOX IMVI = test system: LOX IMVI
SNB-75 = test system: SNB-75
HOP-62 = test system: HOP-62

For `C[C@]12CCC3[C@@H](C[C@H]4OC(=O)[C@@]35CCC(=O)C=C45)C1CCC2=O` (stereo not given in full), the GI50 (HCC 2998) was > 100 µM (inactive), the GI50 (SK-MEL-5) was > 100 µM (inactive) and the GI50 (SF-539) was > 100 µM (inactive). The GI50 (DMS-114) was > 100 µM (inactive), the GI50 (SF-295) was > 100 µM (inactive) and the GI50 (DLD-1) was > 100 µM (inactive). The GI50 (A549) was > 100 µM (inactive), the GI50 (SN12C) was > 100 µM (inactive) and the GI50 (NCI-H23) was > 100 µM (inactive). For the same molecule, the GI50 (UACC-257) was > 100 µM (inactive), the GI50 (SK-MEL-28) was > 100 µM (inactive) and the GI50 (Malme-3M) was > 100 µM (inactive). The GI50 (HOP-18) was > 100 µM (inactive), the GI50 (HCT-15) was > 100 µM and the GI50 (SW-620) was > 100 µM (inactive). The GI50 (U-251) was > 100 µM (inactive), the GI50 (MOLT-4) was > 100 µM (inactive) and the GI50 (M14) was > 100 µM (inactive). For the same molecule, the GI50 (SNB-19) was > 100 µM (inactive), the GI50 (XF498) was > 100 µM (inactive) and the GI50 (NCI-H522) was > 100 µM (inactive). For the same molecule, the GI50 (RXF 393) was > 100 µM (inactive), the GI50 (NCI-H226) was > 100 µM (inactive) and the GI50 (OVCAR-5) was > 100 µM (inactive). For the same molecule, the GI50 (SF-268) was > 100 µM (inactive), the GI50 (NCI-H460) was > 100 µM (inactive) and the GI50 (IGROV-1) was > 100 µM (inactive). The GI50 (SK-OV-3) was > 100 µM (inactive), the GI50 (ACHN) was > 100 µM (inactive) and the GI50 (786-0) was > 100 µM (inactive). The GI50 (RPMI-8226) was > 100 µM (inactive), the GI50 (HOP-92) was > 100 µM (inactive) and the GI50 (SR) was > 100 µM (inactive). For the same molecule, the GI50 (COLO 205) was > 100 µM (inactive), the GI50 (KM12) was > 100 µM (inactive) and the GI50 (HT-29) was > 100 µM (inactive). For the same molecule, the GI50 (CCRF-CEM) was > 100 µM (inactive), the GI50 (K562) was > 100 µM (inactive) and the GI50 (UO-31) was > 100 µM (inactive). The GI50 (TK-10) was > 100 µM (inactive), the GI50 (LXFL 529) was > 100 µM (inactive) and the GI50 (OVCAR-8) was > 100 µM (inactive). For the same molecule, the GI50 (M19-MEL) was > 100 µM (inactive), the GI50 (EKVX) was > 100 µM (inactive) and the GI50 (OVCAR-3) was > 100 µM (inactive). The GI50 (SK-MEL-2) was > 100 µM (inactive) and the GI50 (HL-60) was > 100 µM (inactive).

`Fc1ccc(C2SCc3nc4ccccc4n32)cc1` (stereo not given) was tested, and the GI50 (SK-MEL-5) was 15.8 µM (inactive), the GI50 (SF-539) was > 100 µM (inactive) and the GI50 (UACC-62) was > 10 µM (inactive). The GI50 (DMS-114) was 39.5 µM (inactive), the GI50 (SF-295) was 40.7 µM (inactive) and the GI50 (DLD-1) was 39.7 µM (inactive). The GI50 (SNB-78) was 13.8 µM (inactive), the GI50 (A549) was 45.3 µM (inactive) and the GI50 (SN12C) was 27 µM (inactive). For the same molecule, the GI50 (NCI-H23) was 28.9 µM (inactive), the GI50 (SK-MEL-28) was 23.6 µM (inactive) and the GI50 (Malme-3M) was 25.8 µM (inactive). For the same molecule, the GI50 (HOP-18) was < 0.01 µM (active), the GI50 (HCT-15) was 34.8 µM and the GI50 (OVCAR-4) was 36.3 µM (inactive). For the same molecule, the GI50 (SW-620) was 74.6 µM (inactive), the GI50 (HCT-116) was 32.4 µM (inactive) and the GI50 (U-251) was 51.3 µM (inactive). The GI50 (MOLT-4) was 32.1 µM (inactive), the GI50 (CAKI-1) was 36.8 µM (inactive) and the GI50 (M14) was 43.3 µM (inactive). The GI50 (SNB-19) was 6.1 µM (inactive), the GI50 (XF498) was 27.8 µM (inactive) and the GI50 (NCI-H522) was 14.1 µM (inactive). For the same molecule, the GI50 (LOX IMVI) was 49.2 µM (inactive), the GI50 (RXF 393) was 17.2 µM (inactive) and the GI50 (SNB-75) was 3.1 µM (inactive). The GI50 (NCI-H226) was 37.4 µM (inactive), the GI50 (OVCAR-5) was 21.4 µM (inactive) and the GI50 (SF-268) was 54.3 µM (inactive). The GI50 (NCI-H460) was 34.4 µM (inactive), the GI50 (IGROV-1) was 47.9 µM (inactive) and the GI50 (SK-OV-3) was 94.6 µM (inactive). For the same molecule, the GI50 (ACHN) was 34.8 µM (inactive), the GI50 (786-0) was 42.9 µM (inactive) and the GI50 (RPMI-8226) was 26.4 µM (inactive). For the same molecule, the GI50 (HOP-92) was 19.9 µM (inactive), the GI50 (SR) was 27 µM (inactive) and the GI50 (COLO 205) was 57 µM (inactive). For the same molecule, the GI50 (KM12) was 37.2 µM (inactive), the GI50 (HT-29) was 47.9 µM (inactive) and the GI50 (CCRF-CEM) was 42.1 µM (inactive). For the same molecule, the GI50 (K562) was 31.3 µM (inactive), the GI50 (UO-31) was 23 µM (inactive) and the GI50 (TK-10) was 24.4 µM (inactive). The GI50 (LXFL 529) was 34.4 µM (inactive), the GI50 (OVCAR-8) was 49 µM (inactive) and the GI50 (M19-MEL) was 41 µM (inactive). The GI50 (EKVX) was 58.1 µM (inactive), the GI50 (OVCAR-3) was 24.4 µM (inactive) and the GI50 (SK-MEL-2) was 39.6 µM (inactive). The GI50 (HOP-62) was 35.8 µM (inactive) and the GI50 (HL-60) was 22.3 µM (inactive).
